Source: US12077503B2, “Substituted cyclic amides and their use as herbicides” (FMC CORPORATION, priority 2015, dated 2024)

Legend:
Format in all cases: in vivo
[1] = test system: corn (Zea mays); assay: Test G Post-Emergence Protocol; conditions: Zea mays, post-emergence, 312 h; for plant injury at 15.625 g/ha: 15.625 g ai/ha, evaluated after 13 days (100=total damage to plant; 0=no damage to plant), read-out: Corn damage rating; for plant injury at 62.5 g/ha: 62.5 g ai/ha, read-out: Corn damage rating (100=total damage to plant; 0=no damage to plant); for plant injury at 62.5 g/ha / plant injury at 250 g/ha: evaluated after 13 days; for plant injury at 250 g/ha: 250 g ai/ha, read-out: damage to plant, Corn (100=total damage to plant; 0=no damage to plant)
Procedure, shortened: (§1)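 Pot-grown seedlings, 8 days old, raised in a glasshouse at 24/16 °C day/night with 14 h light and 65% humidity, were sprayed post-emergence with test compound in acetone/water (50:50) plus 0.5% Tween 20 at 15.625, 62.5 or 250 g/ha. Damage was scored visually 13 days later on a 0–100 scale (100 = total damage).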

[2] = test system: barnyardgrass (Echinochloa crus-galli); assay: Test G Post-Emergence Protocol; conditions: Echinochloa crus-galli, post-emergence, 312 h; for pest or weed control at 15.625 g/ha: 15.625 g ai/ha, evaluated after 13 days (100=total damage to plant; 0=no damage to plant), read-out: Barnyardgrass damage rating; for pest or weed control at 62.5 g/ha: 62.5 g ai/ha, read-out: Barnyardgrass damage rating (100=total damage to plant; 0=no damage to plant); for pest or weed control at 62.5 g/ha / pest or weed control at 250 g/ha: evaluated after 13 days; for pest or weed control at 250 g/ha: 250 g ai/ha, read-out: damage to plant, Barnyardgrass (100=total damage to plant; 0=no damage to plant)
Procedure, shortened: as §1

[3] = test system: velvetleaf (Abutilon theophrasti); assay: Test G Post-Emergence Protocol; conditions: Abutilon theophrasti, post-emergence, 312 h; for pest or weed control at 15.625 g/ha: 15.625 g ai/ha, evaluated after 13 days (100=total damage to plant; 0=no damage to plant), read-out: Velvetleaf damage rating; for pest or weed control at 62.5 g/ha: 62.5 g ai/ha, read-out: Velvetleaf damage rating (100=total damage to plant; 0=no damage to plant); for pest or weed control at 62.5 g/ha / pest or weed control at 250 g/ha: evaluated after 13 days; for pest or weed control at 250 g/ha: 250 g ai/ha, read-out: damage to plant, Velvetleaf (100=total damage to plant; 0=no damage to plant)
Procedure, shortened: as §1

[4] = test system: giant foxtail (Setaria faberi); assay: Test G Post-Emergence Protocol; conditions: Setaria faberi, post-emergence, 312 h; for pest or weed control at 15.625 g/ha: 15.625 g ai/ha, evaluated after 13 days (100=total damage to plant; 0=no damage to plant), read-out: Foxtail, Giant damage rating; for pest or weed control at 62.5 g/ha: 62.5 g ai/ha, read-out: Foxtail, Giant damage rating (100=total damage to plant; 0=no damage to plant); for pest or weed control at 62.5 g/ha / pest or weed control at 250 g/ha: evaluated after 13 days; for pest or weed control at 250 g/ha: 250 g ai/ha, read-out: damage to plant, Foxtail, Giant (100=total damage to plant; 0=no damage to plant)
Procedure, shortened: as §1

[5] = test system: ivy-leaved morning glory (Ipomoea hederacea); assay: Test G Post-Emergence Protocol; conditions: Ipomoea, post-emergence, 312 h; for pest or weed control at 15.625 g/ha: 15.625 g ai/ha, evaluated after 13 days (100=total damage to plant; 0=no damage to plant), read-out: Morningglory, Ivy-leaved damage rating; for pest or weed control at 62.5 g/ha: 62.5 g ai/ha, read-out: Morningglory, Ivy-leaved damage rating (100=total damage to plant; 0=no damage to plant); for pest or weed control at 62.5 g/ha / pest or weed control at 250 g/ha: evaluated after 13 days; for pest or weed control at 250 g/ha: 250 g ai/ha, read-out: damage to plant, Morningglory, Ivy-leaved (100=total damage to plant; 0=no damage to plant)
Procedure, shortened: as §1

[6] = test system: redroot pigweed (Amaranthus retroflexus); assay: Test G Post-Emergence Protocol; conditions: Amaranthus retroflexus, post-emergence, 312 h; for pest or weed control at 15.625 g/ha: 15.625 g ai/ha, evaluated after 13 days (100=total damage to plant; 0=no damage to plant), read-out: Pigweed, Redroot damage rating; for pest or weed control at 62.5 g/ha: 62.5 g ai/ha, read-out: Pigweed, Redroot damage rating (100=total damage to plant; 0=no damage to plant); for pest or weed control at 62.5 g/ha / pest or weed control at 250 g/ha: evaluated after 13 days; for pest or weed control at 250 g/ha: 250 g ai/ha, read-out: damage to plant, Pigweed, Redroot (100=total damage to plant; 0=no damage to plant)
Procedure, shortened: as §1

[7] = test system: corn (Zea mays); assay: Test G Pre-Emergence Protocol; conditions: Zea mays, pre-emergence, 312 h, evaluated after 13 days; for plant injury at 15.625 g/ha: 15.625 g ai/ha; for plant injury at 15.625 g/ha / plant injury at 250 g/ha: read-out: Corn damage rating (100=total damage to plant; 0=no damage to plant); for plant injury at 62.5 g/ha: 62.5 g ai/ha, 100=total damage to plant, 0=no damage to plant, read-out: plant damage rating, Corn; for plant injury at 250 g/ha: 250 g ai/ha
Procedure, shortened: (§2)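 Scores are visual damage ratings from 0 (no damage) to 100 (total plant kill), taken 13 days after treatment. Compound was sprayed one day post-sowing at 15.625, 62.5 or 250 g/ha in 50:50 acetone/water with 0.5% Tween 20.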

[8] = test system: barnyardgrass (Echinochloa crus-galli); assay: Test G Pre-Emergence Protocol; conditions: Echinochloa crus-galli, pre-emergence, 312 h, evaluated after 13 days; for pest or weed control at 15.625 g/ha: 15.625 g ai/ha, read-out: Barnyard grass damage rating (100=total damage to plant; 0=no damage to plant); for pest or weed control at 62.5 g/ha: 62.5 g ai/ha, 100=total damage to plant, 0=no damage to plant, read-out: plant damage rating, Barnyardgrass; for pest or weed control at 250 g/ha: 250 g ai/ha, read-out: Barnyardgrass damage rating (100=total damage to plant; 0=no damage to plant)
Procedure, shortened: as §2

[9] = test system: velvetleaf (Abutilon theophrasti); assay: Test G Pre-Emergence Protocol; conditions: Abutilon theophrasti, pre-emergence, 312 h, evaluated after 13 days; for pest or weed control at 15.625 g/ha: 15.625 g ai/ha; for pest or weed control at 15.625 g/ha / pest or weed control at 250 g/ha: read-out: Velvetleaf damage rating (100=total damage to plant; 0=no damage to plant); for pest or weed control at 62.5 g/ha: 62.5 g ai/ha, 100=total damage to plant, 0=no damage to plant, read-out: plant damage rating, Velvetleaf; for pest or weed control at 250 g/ha: 250 g ai/ha
Procedure, shortened: as §2

[10] = test system: giant foxtail (Setaria faberi); assay: Test G Pre-Emergence Protocol; conditions: Setaria faberi, pre-emergence, 312 h, evaluated after 13 days; for pest or weed control at 15.625 g/ha: 15.625 g ai/ha; for pest or weed control at 15.625 g/ha / pest or weed control at 250 g/ha: read-out: Foxtail, Giant damage rating (100=total damage to plant; 0=no damage to plant); for pest or weed control at 62.5 g/ha: 62.5 g ai/ha, 100=total damage to plant, 0=no damage to plant, read-out: plant damage rating, Foxtail, Giant; for pest or weed control at 250 g/ha: 250 g ai/ha
Procedure, shortened: as §2

[11] = test system: ivy-leaved morning glory (Ipomoea hederacea); assay: Test G Pre-Emergence Protocol; conditions: Ipomoea, pre-emergence, 312 h, evaluated after 13 days; for pest or weed control at 15.625 g/ha: 15.625 g ai/ha, read-out: Morning-glory, Ivy-leaved damage rating (100=total damage to plant; 0=no damage to plant); for pest or weed control at 62.5 g/ha: 62.5 g ai/ha, 100=total damage to plant, 0=no damage to plant, read-out: plant damage rating, Morningglory, Ivy-leaved; for pest or weed control at 250 g/ha: 250 g ai/ha, read-out: Morningglory, Ivy-leaved damage rating (100=total damage to plant; 0=no damage to plant)
Procedure, shortened: as §2

[12] = test system: redroot pigweed (Amaranthus retroflexus); assay: Test G Pre-Emergence Protocol; conditions: Amaranthus retroflexus, pre-emergence, 312 h, evaluated after 13 days; for pest or weed control at 15.625 g/ha: 15.625 g ai/ha; for pest or weed control at 15.625 g/ha / pest or weed control at 250 g/ha: read-out: Pigweed, Redroot damage rating (100=total damage to plant; 0=no damage to plant); for pest or weed control at 62.5 g/ha: 62.5 g ai/ha, 100=total damage to plant, 0=no damage to plant, read-out: plant damage rating, Pigweed, Redroot; for pest or weed control at 250 g/ha: 250 g ai/ha
Procedure, shortened: as §2

SMILES | plant injury at 15.625 g/ha [1] | plant injury at 62.5 g/ha [1] | plant injury at 250 g/ha [1] | pest or weed control at 15.625 g/ha [2] | pest or weed control at 62.5 g/ha [2] | pest or weed control at 250 g/ha [2] | pest or weed control at 15.625 g/ha [3] | pest or weed control at 62.5 g/ha [3] | pest or weed control at 250 g/ha [3] | pest or weed control at 15.625 g/ha [4] | pest or weed control at 62.5 g/ha [4] | pest or weed control at 250 g/ha [4] | pest or weed control at 15.625 g/ha [5] | pest or weed control at 62.5 g/ha [5] | pest or weed control at 250 g/ha [5] | pest or weed control at 15.625 g/ha [6] | pest or weed control at 62.5 g/ha [6] | pest or weed control at 250 g/ha [6] | plant injury at 15.625 g/ha [7] | plant injury at 62.5 g/ha [7] | also measured
CSc1nccc(NC(=O)[C@@H]2C(=O)N(C)C[C@H]2c2ccc(C(F)(F)F)cc2)n1 (racemic) [Compound 1516] | 0% | 0% | 0% | 0% | 0% | 0% | 0% | 0% | 0% | 0% | 0% | 0% | 0% | 0% | 0% | 0% | 0% | 0% | 0% | 0% | plant injury at 250 g/ha [7]: 0%; pest or weed control at 15.625 g/ha [8]: 0%; pest or weed control at 62.5 g/ha [8]: 0%; pest or weed control at 250 g/ha [8]: 0%; pest or weed control at 15.625 g/ha [9]: 0%; pest or weed control at 62.5 g/ha [9]: 0%; pest or weed control at 250 g/ha [9]: 0%; pest or weed control at 15.625 g/ha [10]: 0%; pest or weed control at 62.5 g/ha [10]: 0%; pest or weed control at 250 g/ha [10]: 0%; pest or weed control at 15.625 g/ha [11]: 0%; pest or weed control at 62.5 g/ha [11]: 0%; pest or weed control at 250 g/ha [11]: 0%; pest or weed control at 15.625 g/ha [12]: 0%; pest or weed control at 62.5 g/ha [12]: 0%; pest or weed control at 250 g/ha [12]: 0%
CN1C[C@@H](c2ccc(C(F)(F)F)cc2)[C@H](C(=O)Nc2cccnc2Cl)C1=O (racemic) [Compound 1517] | 0% | 10% | 80% | 0% | 50% | 70% | 0% | 10% | 20% | 20% | 60% | 60% | 20% | 30% | 70% | 0% | 0% | 20% | 0% | 0% | plant injury at 250 g/ha [7]: 20%; pest or weed control at 15.625 g/ha [8]: 0%; pest or weed control at 62.5 g/ha [8]: 70%; pest or weed control at 250 g/ha [8]: 90%; pest or weed control at 15.625 g/ha [9]: 0%; pest or weed control at 62.5 g/ha [9]: 0%; pest or weed control at 250 g/ha [9]: 0%; pest or weed control at 15.625 g/ha [10]: 30%; pest or weed control at 62.5 g/ha [10]: 70%; pest or weed control at 250 g/ha [10]: 80%; pest or weed control at 15.625 g/ha [11]: 0%; pest or weed control at 62.5 g/ha [11]: 0%; pest or weed control at 250 g/ha [11]: 0%; pest or weed control at 15.625 g/ha [12]: 0%; pest or weed control at 62.5 g/ha [12]: 0%; pest or weed control at 250 g/ha [12]: 60%
